According to patent US11713335B2, “Aminocoumarin compounds and methods of their use” (President and Fellows of Harvard College, priority 2018, dated 2023):
Converted amounts (≈) assume the structure as drawn. Where two headings read alike, the source gives them in different places.

Key:
Format in all cases: cell-based
E. coli 25922 = assay: Minimal inhibitory concentration, E. coli 25922; settings: read-out: MIC (μM) E. coli 25922
Method: (§1) General Procedure for Determination of Minimal Inhibitory Concentrations
(§2) Overnight cultures (5 mL) of bacterial strains were grown in LB media or TSA media (for S. aureus) at 37° C. and with shaking at 220 rpm until saturation. The overnight culture was diluted serially 1:100 (50 μL in 5 mL sterile media) and then 1:100 (250 μL in 25 mL sterile media). The 25 mL of diluted culture was then dispensed to a sterile 96 well plate (Corning #3370). 198 μL of culture were dispensed into row A and 100 μL of this culture were dispensed into rows B-H. Aminocoumarin compound (DMSO stock) were added to the first row and then the row was mixed by pipetting. 100 μL of culture from row A were transferred to row B and the serial dilution continued until the final 100 μL from row H were discarded. The plate was incubated without shaking in a 37° C. for 16 hours and then read by visible light spectrophotometer (Molecular Devices) at 600 nm. The minimal inhibitory concentration (MIC) was determined as the lowest concentration of compound concentration that inhibited the growth of bacteria.
(§3) The compounds of the invention were assessed for activities against the pathogens S. aureus RN4220 and MW2, E. cloacae 13047, A. baumannii 19606, K. pneumoniae 700721, E. coli MC4100, 25922. All activities are reported in micromolar (uM) and are 16 hour minimal inhibitory concentrations at 37° C. The assay is detailed in Example 11 and is titled “General Procedure for Determination of Minimal Inhibitory Concentrations.”

S. aureus RN4220 = assay: Minimal inhibitory concentration, S. aureus RN4220; settings: read-out: MIC (μM) S. aureus RN4220
Method: as §1, §2, §3

S. aureus MW2 = assay: Minimal inhibitory concentration, S. aureus MW2; settings: read-out: MIC (μM) S. aureus MW2 (MRSA)
Method: as §1, §2, §3

A. baumannii 19606 = assay: Minimal inhibitory concentration, A. baumannii 19606; settings: read-out: MIC (μM) A. baumannii 19606
Method: as §1, §2, §3

E. coli MC4100 = assay: Minimal inhibitory concentration, E. coli MC4100; settings: read-out: MIC (μM) E. coli MC4100 ara+
Method: as §1, §2, §3

K. pneumoniae 700721 = assay: Minimal inhibitory concentration, K. pneumoniae 700721; settings: read-out: MIC (μM) K. pneumoniae 700721
Method: as §1, §2, §3

E. cloacae 13047 = assay: Minimal inhibitory concentration, E. cloacae 13047; settings: read-out: MIC (μM) E. cloacae 13047
Method: as §1, §2, §3

[1] = 16 hour minimal inhibitory concentration at 37° C.
[2] = Staphylococcus aureus, RN4220, 16 h
[3] = Staphylococcus aureus, MRSA, 16 h
[4] = Acinetobacter baumannii, 19606, 16 h
[5] = Klebsiella pneumoniae, 700721, 16 h
[6] = Enterobacter cloacae, 13047, 16 h
[7] = Escherichia coli, 25922, 16 h, 16 hour minimal inhibitory concentration at 37° C.
[8] = Staphylococcus aureus, RN4220, 16 h, 16 hour minimal inhibitory concentration at 37° C.
[9] = Staphylococcus aureus, MRSA, 16 h, 16 hour minimal inhibitory concentration at 37° C.
[10] = Acinetobacter baumannii, 19606, 16 h, 16 hour minimal inhibitory concentration at 37° C.
[11] = Escherichia coli, MC4100, 16 h, 16 hour minimal inhibitory concentration at 37° C.
[12] = Klebsiella pneumoniae, 700721, 16 hour minimal inhibitory concentration at 37° C.
[13] = Enterobacter cloacae, 13047, 16 hour minimal inhibitory concentration at 37° C.

Structure (SMILES)	MIC (E. coli 25922; [7])	MIC (S. aureus RN4220; [8])	MIC (S. aureus MW2; [9])	MIC (A. baumannii 19606; [10])	MIC (E. coli MC4100; [11])	MIC (K. pneumoniae 700721; [12])	MIC (E. cloacae 13047; [13])	also measured
CCCNC(=O)O[C@H]1[C@H](Oc2ccc3c(O)c(NC(=O)c4ccc(O)c(CC=C(C)C)c4)c(=O)oc3c2C)OC(C)(C)[C@H](OC)[C@H]1O [Compound 109]								MIC (E. coli 25922; [1]): >200 µM; MIC (S. aureus RN4220; [1]): 1.53 µM (≈ 1 µg/mL); MIC (S. aureus MW2; [1]): 1.53 µM (≈ 1 µg/mL); MIC (A. baumannii 19606; [1]): 10 µM (≈ 6.55 µg/mL); MIC (E. coli MC4100; [1]): >200 µM; MIC (K. pneumoniae 700721; [1]): >100 µM; MIC (E. cloacae 13047; [1]): >100 µM
CO[C@@H]1[C@@H](O)[C@@H](OC(=O)NC2CCCCC2)[C@H](Oc2ccc3c(O)c(NC(=O)c4ccc(O)c(CC=C(C)C)c4)c(=O)oc3c2C)OC1(C)C [Compound 110]								MIC (E. coli 25922; [1]): >200 µM; MIC (S. aureus RN4220; [1]): >100 µM; MIC (S. aureus MW2; [1]): >100 µM; MIC (A. baumannii 19606; [1]): >50 µM; MIC (E. coli MC4100; [1]): >200 µM; MIC (K. pneumoniae 700721; [1]): >100 µM; MIC (E. cloacae 13047; [1]): >100 µM
CO[C@@H]1[C@@H](OC(=O)c2ccc(C)[nH]2)[C@@H](O)[C@H](Oc2ccc3c(O)c(NC(=O)c4ccc(O)c(CC=C(C)C)c4)c(=O)oc3c2C)OC1(C)C [Compound 112]								MIC (E. coli 25922; Escherichia coli, 25922, 16 h): 18.5 µM (≈ 12.5 µg/mL); MIC (S. aureus RN4220; [2]): < 0.01 µM; MIC (S. aureus MW2; [3]): < 0.01 µM; MIC (A. baumannii 19606; [4]): < 0.11 µM; MIC (E. coli MC4100; Escherichia coli, MC4100, 16 h): 74 µM (≈ 50.1 µg/mL); MIC (K. pneumoniae 700721; [5]): 37 µM (≈ 25 µg/mL); MIC (E. cloacae 13047; [6]): > 100 µM
CO[C@@H]1[C@@H](O)[C@@H](OC(=O)c2ccc[nH]2)[C@H](Oc2ccc3c(O)c(NC(=O)c4ccc(O)c(CC=C(C)C)c4)c(=O)oc3c2C)OC1(C)C [Compound 113]								MIC (E. coli 25922; [1]): >200 µM; MIC (S. aureus RN4220; [1]): 0.5 µM (≈ 0.331 µg/mL); MIC (S. aureus MW2; [1]): 0.24 µM (≈ 0.159 µg/mL); MIC (A. baumannii 19606; [1]): 2 µM (≈ 1.33 µg/mL); MIC (E. coli MC4100; [1]): >200 µM; MIC (K. pneumoniae 700721; [1]): >100 µM; MIC (E. cloacae 13047; [1]): >100 µM
CO[C@@H]1[C@@H](O)[C@@H](OC(=O)c2cccn2C)[C@H](Oc2ccc3c(O)c(NC(=O)c4ccc(O)c(CC=C(C)C)c4)c(=O)oc3c2C)OC1(C)C [Compound 114]								MIC (E. coli 25922; [1]): >200 µM; MIC (S. aureus RN4220; [1]): 74 µM (≈ 50.1 µg/mL); MIC (S. aureus MW2; [1]): 74 µM (≈ 50.1 µg/mL); MIC (A. baumannii 19606; [1]): >50 µM; MIC (E. coli MC4100; [1]): >200 µM; MIC (K. pneumoniae 700721; [1]): >100 µM; MIC (E. cloacae 13047; [1]): >100 µM
CO[C@@H]1[C@@H](OC(N)=O)[C@@H](O)[C@H](Oc2ccc3c(O)c(NC(=O)c4cc(C)oc4C)c(=O)oc3c2C)OC1(C)C [Compound 200]	> 200 µM	91 µM (≈ 49.7 µg/mL)	91 µM (≈ 49.7 µg/mL)	> 50 µM	> 200 µM	> 100 µM	> 100 µM	
CO[C@@H]1[C@@H](OC(N)=O)[C@@H](O)[C@H](Oc2ccc3c(O)c(NC(=O)c4cccc(-c5cc[nH]n5)c4)c(=O)oc3c2C)OC1(C)C [Compound 201]	> 200 µM	42 µM (≈ 25 µg/mL)	42 µM (≈ 25 µg/mL)	> 50 µM	> 200 µM	> 100 µM	> 100 µM	
CO[C@@H]1[C@@H](OC(N)=O)[C@@H](O)[C@H](Oc2ccc3c(O)c(NS(=O)(=O)c4cccc(-c5ccccc5)c4)c(=O)oc3c2C)OC1(C)C [Compound 202]	> 200 µM	> 100 µM	> 100 µM	> 50 µM	> 200 µM	> 100 µM	> 100 µM	
CO[C@@H]1[C@@H](OC(N)=O)[C@@H](O)[C@H](Oc2ccc3c(O)c(NC(=O)c4ccc(O)c(C/C=C/CCC(=O)O)c4)c(=O)oc3c2C)OC1(C)C [Compound 203]	> 200 µM	> 100 µM	> 100 µM	> 50 µM	> 200 µM	> 100 µM	> 100 µM	
CO[C@@H]1[C@@H](OC(N)=O)[C@@H](O)[C@H](Oc2ccc3c(O)c(NC(=O)c4ccc(Br)cc4)c(=O)oc3c2C)OC1(C)C [Compound 204]	> 200 µM	82 µM (≈ 49.8 µg/mL)	82 µM (≈ 49.8 µg/mL)	> 50 µM	> 200 µM	> 100 µM	> 100 µM	
CO[C@@H]1[C@@H](OC(=O)Nc2ccccc2)[C@@H](O)[C@H](Oc2ccc3c(O)c(NC(=O)c4cccc(-c5ccc6ccccc6c5)c4)c(=O)oc3c2C)OC1(C)C [Compound 205]	> 200 µM	9 µM (≈ 6.58 µg/mL)	9 µM (≈ 6.58 µg/mL)	> 50 µM	> 200 µM	> 100 µM	> 100 µM	
CO[C@@H]1[C@@H](OC(N)=O)[C@@H](O)[C@H](Oc2ccc3c(O)c(NC(=O)c4cccc(CN)c4)c(=O)oc3c2C)OC1(C)C [Compound 206]	> 200 µM	> 100 µM	> 100 µM	> 50 µM	> 200 µM	> 100 µM	> 100 µM	
CO[C@@H]1[C@@H](OC(N)=O)[C@@H](O)[C@H](Oc2ccc3c(O)c(NC(=O)c4ccc(CN)cc4)c(=O)oc3c2C)OC1(C)C [Compound 207]	> 200 µM	> 100 µM	> 100 µM	> 50 µM	> 200 µM	> 100 µM	> 100 µM	
CO[C@@H]1[C@H]2OP(=O)(c3ccccc3)O[C@H]2[C@H](Oc2ccc3c(O)c(NC(=O)c4ccc(O)c(CC=C(C)C)c4)c(=O)oc3c2C)OC1(C)C (some centres unmarked) [Compound 208]	> 200 µM	> 100 µM	> 100 µM	> 50 µM	> 200 µM	> 100 µM	> 100 µM	
CO[C@@H]1[C@@H](OC(N)=O)[C@@H](O)[C@H](Oc2ccc3c(O)c(NC(=O)OC(C)(C)C)c(=O)oc3c2C)OC1(C)C [Compound 209]	> 200 µM	> 100 µM	> 100 µM	> 50 µM	> 200 µM	> 100 µM	> 100 µM	
CO[C@@H]1[C@@H](OC(=O)c2ccc(C)n2-c2ccccc2)[C@@H](O)[C@H](Oc2ccc3c(O)c(NC(=O)c4ccc(O)c(CC=C(C)C)c4)c(=O)oc3c2C)OC1(C)C [Compound 210]	> 200 µM	33 µM (≈ 24.8 µg/mL)	33 µM (≈ 24.8 µg/mL)	> 50 µM	> 200 µM	> 100 µM	> 100 µM	
CO[C@@H]1[C@@H](OC(N)=O)[C@@H](O)[C@H](Oc2ccc3c(OCc4ccccc4)c(NC(=O)c4ccc(O)c(CC=C(C)C)c4)c(=O)oc3c2C)OC1(C)C [Compound 211]	> 200 µM	> 100 µM	> 100 µM	> 50 µM	> 200 µM	> 100 µM	> 100 µM	
C=CCOc1c(NC(=O)c2ccc(O)c(CC=C(C)C)c2)c(=O)oc2c(C)c(O[C@@H]3OC(C)(C)[C@H](OC)[C@@H](OC(N)=O)[C@H]3O)ccc12 [Compound 212]	> 200 µM	> 100 µM	> 100 µM	> 50 µM	> 200 µM	> 100 µM	> 100 µM	
CO[C@@H]1[C@@H](OC(=O)c2cc(C)c(C)[nH]2)[C@@H](O)[C@H](Oc2ccc3c(O)c(NC(=O)c4ccc(O)c(CC=C(C)C)c4)c(=O)oc3c2C)OC1(C)C [Compound 213]								MIC (E. coli 25922; Escherichia coli, 25922, 16 h): > 200 µM; MIC (S. aureus RN4220; [2]): 1.8 µM (≈ 1.24 µg/mL); MIC (S. aureus MW2; [3]): 0.45 µM (≈ 0.311 µg/mL); MIC (A. baumannii 19606; [4]): 4.5 µM (≈ 3.11 µg/mL); MIC (E. coli MC4100; Escherichia coli, MC4100, 16 h): > 200 µM; MIC (K. pneumoniae 700721; [5]): > 100 µM; MIC (E. cloacae 13047; [6]): > 100 µM
CO[C@@H]1[C@@H](O)[C@@H](OC(=O)c2cc(C)c(C)[nH]2)[C@H](Oc2ccc3c(O)c(NC(=O)c4ccc(O)c(CC=C(C)C)c4)c(=O)oc3c2C)OC1(C)C [Compound 214]								MIC (E. coli 25922; Escherichia coli, 25922, 16 h): > 200 µM; MIC (S. aureus RN4220; [2]): 5 µM (≈ 3.45 µg/mL); MIC (S. aureus MW2; [3]): 5 µM (≈ 3.45 µg/mL); MIC (A. baumannii 19606; [4]): > 50 µM; MIC (E. coli MC4100; Escherichia coli, MC4100, 16 h): > 200 µM; MIC (K. pneumoniae 700721; [5]): > 100 µM; MIC (E. cloacae 13047; [6]): > 100 µM
